Consider 23 molecules from patent US12060347B2 (BRISTOL-MYERS SQUIBB COMPANY, priority 2016, dated 2024).

This assay deals with T1, human PAR4 (Homo sapiens, UniProt Q96RI0).
T1 construct: expressed in transfected cells; host or cells: HEK293 PAR4 Clone 1.2A (BMS Arctic ID 383940)
T1 sequence (Q96RI0 18-385): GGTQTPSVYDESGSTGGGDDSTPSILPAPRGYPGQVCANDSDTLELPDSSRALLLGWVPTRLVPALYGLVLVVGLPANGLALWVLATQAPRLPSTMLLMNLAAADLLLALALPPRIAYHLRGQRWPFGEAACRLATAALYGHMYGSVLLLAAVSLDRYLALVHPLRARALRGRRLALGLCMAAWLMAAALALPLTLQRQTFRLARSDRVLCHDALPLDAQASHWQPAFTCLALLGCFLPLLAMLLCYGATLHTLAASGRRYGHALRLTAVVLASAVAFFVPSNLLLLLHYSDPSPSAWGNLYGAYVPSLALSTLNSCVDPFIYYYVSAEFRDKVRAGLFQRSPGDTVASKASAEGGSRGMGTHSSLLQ
In words: PAR4 FLIPR assay: antagonism of agonist-peptide-induced calcium mobilization in PAR4-expressing HEK293 cells. Type of assay: cell-based. The following applies: H-Ala-Phe(4-F)-[…]NH2-induced intracellular calcium mobilization, 11-point curves.

Each structure is given as a SMILES string.

`COc1cnc2c(-c3nc4cc(F)c(O[C@@H](C)[C@@H](C)OC(=O)Nc5ccnc(C(=O)NC[C@@H](C)O)c5)cc4s3)cc(C)cc2n1` [Example 452, (2R,3S)-3-((5-fluoro-2-(2-methoxy-7-methylquinoxalin-5-yl)benzo[d]thiazol-6-yl)oxy)butan-2-yl (2-(((R)-2-hydroxypropyl)carbamoyl)pyridin-4-yl)carbamate]: the 50% inhibitory concentration (IC50) was determined as 0.4 nM.

Consider `COc1cnc2c(-c3nc4cc(F)c(O[C@@H](C)[C@@H](C)OC(=O)Nc5ccnc(C(N)=O)c5)cc4s3)cc(C)cc2n1` [Example 453, (2R,3S)-3-((5-fluoro-2-(2-methoxy-7-methylquinoxalin-5-yl)benzo[d]thiazol-6-yl)oxy)butan-2-yl (2-carbamoylpyridin-4-yl)carbamate], for which the IC50 was 0.6 nM.

Turning to `COc1cnc2c(-c3nc4cc(F)c(O[C@@H](C)[C@@H](C)OC(=O)Nc5cnc(C(N)=O)nc5)cc4s3)cc(C)cc2n1` [Example 454, (2R,3S)-3-((5-fluoro-2-(2-methoxy-7-methylquinoxalin-5-yl)benzo[d]thiazol-6-yl)oxy)butan-2-yl (2-carbamoylpyrimidin-5-yl)carbamate], the IC50 was 1.3 nM.

As for `COc1cnc2c(-c3nc4cc(F)c(O[C@@H](C)[C@@H](C)OC(=O)Nc5cnc(C(=O)NCCO)nc5)cc4s3)cc(C)cc2n1` [Example 455, (2R,3S)-3-((5-fluoro-2-(2-methoxy-7-methylquinoxalin-5-yl)benzo[d]thiazol-6-yl)oxy)butan-2-yl (2-((2-hydroxyethyl)carbamoyl)pyrimidin-5-yl)carbamate], the IC50 turned out to be 0.8 nM.

With `COc1cnc2c(-c3nc4cc(F)c(O[C@@H](C)[C@@H](C)OC(=O)Nc5cnc(C(=O)NCC(C)(C)O)nc5)cc4s3)cc(C)cc2n1` [Example 457, (2R,3S)-3-((5-fluoro-2-(2-methoxy-7-methylquinoxalin-5-yl)benzo[d]thiazol-6-yl)oxy)butan-2-yl (2-((2-hydroxy-2-methylpropyl)carbamoyl)pyrimidin-5-yl)carbamate], the IC50 was found to be 0.4 nM.

In the case of `COc1cnc2c(-c3nc4cc(F)c(O[C@@H](C)[C@@H](C)OC(=O)Nc5cnc(C(=O)NCCC(C)(C)O)nc5)cc4s3)cc(C)cc2n1` [Example 458, (2R,3S)-3-((5-fluoro-2-(2-methoxy-7-methylquinoxalin-5-yl)benzo[d]thiazol-6-yl)oxy)butan-2-yl (2-((3-hydroxy-3-methylbutyl)carbamoyl)pyrimidin-5-yl)carbamate], the IC50 is 0.5 nM.

For `COc1cnc2c(-c3nc4cc(F)c(O[C@@H](C)[C@@H](C)OC(=O)Nc5ccnc(C(=O)NCCC(C)(C)O)c5)cc4s3)cc(C)cc2n1` [Example 459, (2R,3S)-3-((5-fluoro-2-(2-methoxy-7-methylquinoxalin-5-yl)benzo[d]thiazol-6-yl)oxy)butan-2-yl (2-((3-hydroxy-3-methylbutyl)carbamoyl)pyridin-4-yl)carbamate], the half-maximal inhibitory concentration (IC50) amounted to 0.9 nM.

Regarding `COc1cnc2c(-c3nc4cc(F)c(O[C@@H](C)[C@@H](C)OC(=O)Nc5ccc(C(=O)NCC(C)(C)O)nc5)cc4s3)cc(C)cc2n1` [Example 460, (2R,3S)-3-((5-fluoro-2-(2-methoxy-7-methylquinoxalin-5-yl)benzo[d]thiazol-6-yl)oxy)butan-2-yl (6-((2-hydroxy-2-methylpropyl)carbamoyl)pyridin-3-yl)carbamate], the IC50 was 0.9 nM.

For the molecule `COc1cnc2c(-c3nc4cc(F)c(O[C@@H](C)[C@@H](C)OC(=O)Nc5ccnc(C(=O)NC[C@H](C)O)c5)cc4s3)cc(C)cc2n1` [Example 461, (2R,3S)-3-((5-fluoro-2-(2-methoxy-7-methylquinoxalin-5-yl)benzo[d]thiazol-6-yl)oxy)butan-2-yl (2-(((S)-2-hydroxypropyl)carbamoyl)pyridin-4-yl)carbamate], the IC50 is 0.4 nM.

Consider `COc1cnc2c(-c3nc4cc(F)c(O[C@@H](C)[C@@H](C)OC(=O)Nc5cnc(C(=O)NC[C@H](C)O)nc5)cc4s3)cc(C)cc2n1` [Example 462, (2R,3S)-3-((5-fluoro-2-(2-methoxy-7-methylquinoxalin-5-yl)benzo[d]thiazol-6-yl)oxy)butan-2-yl (2-(((S)-2-hydroxypropyl)carbamoyl)pyrimidin-5-yl)carbamate], for which the IC50 was found to be 0.2 nM.

As to `COc1cnc2c(-c3nc4cc(F)c(O[C@@H](C)[C@@H](C)OC(=O)Nc5cnc(C(=O)NCC6(O)CCC6)nc5)cc4s3)cc(C)cc2n1` [Example 463, (2R,3S)-3-((5-fluoro-2-(2-methoxy-7-methylquinoxalin-5-yl)benzo[d]thiazol-6-yl)oxy)butan-2-yl (2-(((1-hydroxycyclobutyl)methyl)carbamoyl)pyrimidin-5-yl)carbamate], the IC50 came to 0.7 nM.

For the molecule `COc1cnc2c(-c3nc4cc(F)c(O[C@@H](C)[C@@H](C)OC(=O)Nc5ccc(C(=O)NCCC(C)(C)O)nc5)cc4s3)cc(C)cc2n1` [Example 464, (2R,3S)-3-((5-fluoro-2-(2-methoxy-7-methylquinoxalin-5-yl)benzo[d]thiazol-6-yl)oxy)butan-2-yl (6-((3-hydroxy-3-methylbutyl)carbamoyl)pyridin-3-yl)carbamate], the IC50 is 1.5 nM.

`COc1cnc2c(-c3nc4cc(F)c(O[C@@H](C)[C@@H](C)OC(=O)Nc5ccnc(C(=O)NCC(C)(C)O)c5)cc4s3)cc(C)cc2n1` [Example 465, (2R,3S)-3-((5-fluoro-2-(2-methoxy-7-methylquinoxalin-5-yl)benzo[d]thiazol-6-yl)oxy)butan-2-yl (2-((2-hydroxy-2-methylpropyl)carbamoyl)pyridin-4-yl)carbamate]: the IC50 came to 1.4 nM.

Consider `CNC(=O)c1cc(NC(=O)O[C@H](C)[C@H](C)Oc2cc3sc(-c4cc(C)cc5nc(OC)cnc45)nc3cc2F)ccn1` [Example 466, (2R,3S)-3-((5-fluoro-2-(2-methoxy-7-methylquinoxalin-5-yl)benzo[d]thiazol-6-yl)oxy)butan-2-yl (2-(methylcarbamoyl)pyridin-4-yl)carbamate], for which the half-inhibitory concentration (IC50) amounted to 0.7 nM.

Turning to `COc1cnc2c(-c3nc4cc(F)c(O[C@@H](C)[C@@H](C)OC(=O)Nc5ccnc(C(=O)N(C)C)c5)cc4s3)cc(C)cc2n1` [Example 467, (2R,3S)-3-((5-fluoro-2-(2-methoxy-7-methylquinoxalin-5-yl)benzo[d]thiazol-6-yl)oxy)butan-2-yl (2-(dimethylcarbamoyl)pyridin-4-yl)carbamate], the IC50 amounted to 1.9 nM.

On to `COc1cnc2c(-c3nc4cc(F)c(O[C@@H](C)[C@@H](C)OC(=O)Nc5cnc(C(=O)N(C)C)nc5)cc4s3)cc(C)cc2n1` [Example 468, (2R,3S)-3-((5-fluoro-2-(2-methoxy-7-methylquinoxalin-5-yl)benzo[d]thiazol-6-yl)oxy)butan-2-yl (2-(dimethylcarbamoyl)pyrimidin-5-yl)carbamate], for which the IC50 was 0.8 nM.

Consider `COc1cnc2c(-c3nc4cc(F)c(OC[C@@H](C)OC(=O)Nc5ccc(C(=O)NCC6(CO)COC6)nc5)cc4s3)cc(C)cc2n1` [Example 470, (R)-1-((5-fluoro-2-(2-methoxy-7-methylquinoxalin-5-yl)benzo[d]thiazol-6-yl)oxy)propan-2-yl (6-(((3-(hydroxymethyl)oxetan-3-yl)methyl)carbamoyl)pyridin-3-yl)carbamate], for which the IC50 was 2.2 nM.

Take `COc1cnc2c(-c3nc4cc(F)c(OC[C@@H](C)OC(=O)Nc5ccc(C(=O)N(C)CCO)nc5)cc4s3)cc(C)cc2n1` [Example 471, (R)-1-((5-fluoro-2-(2-methoxy-7-methylquinoxalin-5-yl)benzo[d]thiazol-6-yl)oxy)propan-2-yl (6-((2-hydroxyethyl)(methyl)carbamoyl)pyridin-3-yl)carbamate]: the IC50 was 5.2 nM.

For `COc1cnc2c(-c3nc4cc(F)c(OC[C@@H](C)OC(=O)Nc5ccc(C(=O)NCC(C)(C)CO)nc5)cc4s3)cc(C)cc2n1` [Example 472, (R)-1-((5-fluoro-2-(2-methoxy-7-methylquinoxalin-5-yl)benzo[d]thiazol-6-yl)oxy)propan-2-yl (6-((3-hydroxy-2,2-dimethylpropyl)carbamoyl)pyridin-3-yl)carbamate], the IC50 came to 4.6 nM.

`COc1cnc2c(-c3nc4cc(F)c(OC[C@@H](C)OC(=O)Nc5ccc(C(=O)NCC6(CO)CCC6)nc5)cc4s3)cc(C)cc2n1` [Example 473, (R)-1-((5-fluoro-2-(2-methoxy-7-methylquinoxalin-5-yl)benzo[d]thiazol-6-yl)oxy)propan-2-yl (6-(((1-(hydroxymethyl)cyclobutyl)methyl)carbamoyl)pyridin-3-yl)carbamate]: the IC50 amounted to 3.4 nM.

As to `COc1cnc2c(-c3nc4cc(F)c(OC[C@@H](C)OC(=O)Nc5ccc(C(=O)N(C)CC(C)(C)O)nc5)cc4s3)cc(C)cc2n1` [Example 474, (R)-1-((5-fluoro-2-(2-methoxy-7-methylquinoxalin-5-yl)benzo[d]thiazol-6-yl)oxy)propan-2-yl (6-((2-hydroxy-2-methylpropyl)(methyl)carbamoyl)pyridin-3-yl)carbamate], the IC50 was 11 nM.

Take `COc1cnc2c(-c3nc4cc(F)c(OC[C@@H](C)OC(=O)Nc5ccc(C(=O)N6CC[C@@H](O)C6)nc5)cc4s3)cc(C)cc2n1` [Example 475]: the IC50 stood at 4.8 nM.

Consider `COc1cnc2c(-c3nc4cc(F)c(OC[C@@H](C)OC(=O)Nc5ccc(C(=O)N6CC[C@@H](CO)C6)nc5)cc4s3)cc(C)cc2n1` [Example 476, (R)-1-((5-fluoro-2-(2-methoxy-7-methylquinoxalin-5-yl)benzo[d]thiazol-6-yl)oxy)propan-2-yl (6-((R)-3-(hydroxymethyl)pyrrolidine-1-carbonyl)pyridin-3-yl)carbamate], for which the IC50 came out at 10 nM.
